US20250136606A1, “MODULATORS OF TRPML, THEIR COMPOSITIONS AND METHODS OF USE” (Caraway Therapeutics, Inc., priority 2021, published 2025)

Columns and labels:
Format in all cases: cell-based
TRPML1 = TRPML1 (Homo sapiens, UniProt Q9GZU1); test: Fluorescent TRPML1 assay (Fluo4-AM calcium fluorescence in doxycycline-induced HEK-293 Trex cells)
In short: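 HEK-293 Trex cells stably carrying human TRPML1 (surface-trafficking mutant) were induced overnight with 0.5 ug/mL doxycycline, loaded with 1 micromolar Fluo4-AM, and suspended in Ringer's with 10 mM calcium. Compounds at 20 micromolar to 6 nanomolar final, half-log steps, triplicate; fluorescence 480/540 nm gave percent activity versus controls and EC50 by non-linear regression.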

TRPML2 = target: T1, TRPML2 (Homo sapiens, UniProt Q8IZK6); test: Fluorescent TRPML2 assay (performed as for TRPML1, substituting the TRPML2 subtype)
T1 construct: expressed in transfected cells
T1 sequence (Q8IZK6 1-566): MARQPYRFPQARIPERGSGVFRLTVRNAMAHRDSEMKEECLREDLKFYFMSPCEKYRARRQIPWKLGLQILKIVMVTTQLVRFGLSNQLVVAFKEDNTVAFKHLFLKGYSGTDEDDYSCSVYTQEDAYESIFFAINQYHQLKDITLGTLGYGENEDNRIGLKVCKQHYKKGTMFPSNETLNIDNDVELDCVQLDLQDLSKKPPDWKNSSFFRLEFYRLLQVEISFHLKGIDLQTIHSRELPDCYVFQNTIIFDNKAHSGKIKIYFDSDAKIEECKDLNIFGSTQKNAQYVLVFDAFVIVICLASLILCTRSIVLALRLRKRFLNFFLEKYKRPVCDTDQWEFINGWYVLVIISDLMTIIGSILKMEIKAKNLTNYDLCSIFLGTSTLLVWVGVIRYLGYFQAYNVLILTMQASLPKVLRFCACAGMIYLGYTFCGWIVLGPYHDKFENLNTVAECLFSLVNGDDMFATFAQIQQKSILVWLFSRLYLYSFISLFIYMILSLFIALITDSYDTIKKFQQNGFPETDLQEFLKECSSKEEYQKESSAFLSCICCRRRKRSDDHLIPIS
In short: (§1)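 HEK-293 Trex cells with doxycycline-induced (0.5 ug/mL) surface-directed human TRPML subtype, loaded with 1 μM Fluo4-AM, resuspended in Ringer's with 10 mM calcium. Compounds at 20 μM to 6 nM final in half-log steps, triplicate; fluorescence ex 480/em 540; EC50 by non-linear regression versus plate controls.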

TRPML3 = target: T2, TRPML3 (Homo sapiens, UniProt Q8TDD5); test: Fluorescent TRPML3 assay (performed as for TRPML1, substituting the TRPML3 subtype)
T2 construct: expressed in transfected cells
T2 sequence (Q8TDD5 1-553): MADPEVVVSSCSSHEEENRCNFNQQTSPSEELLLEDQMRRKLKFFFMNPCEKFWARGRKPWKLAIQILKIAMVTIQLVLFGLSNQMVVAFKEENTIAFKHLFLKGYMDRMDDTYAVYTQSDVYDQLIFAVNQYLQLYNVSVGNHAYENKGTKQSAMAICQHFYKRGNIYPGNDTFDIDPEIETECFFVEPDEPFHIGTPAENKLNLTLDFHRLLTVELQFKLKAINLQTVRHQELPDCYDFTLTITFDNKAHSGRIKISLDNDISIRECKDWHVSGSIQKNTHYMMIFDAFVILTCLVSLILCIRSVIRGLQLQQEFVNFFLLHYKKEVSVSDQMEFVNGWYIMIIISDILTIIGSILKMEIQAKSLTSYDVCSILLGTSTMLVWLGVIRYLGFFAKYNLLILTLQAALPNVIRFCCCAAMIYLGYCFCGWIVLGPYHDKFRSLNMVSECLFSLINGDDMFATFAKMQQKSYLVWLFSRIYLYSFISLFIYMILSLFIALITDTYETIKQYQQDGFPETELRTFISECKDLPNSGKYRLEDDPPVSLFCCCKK
In short: as §1

Chain of TRPML1 (Q9GZU1 whole entry L15A/L16A/L577A/L578A, form open): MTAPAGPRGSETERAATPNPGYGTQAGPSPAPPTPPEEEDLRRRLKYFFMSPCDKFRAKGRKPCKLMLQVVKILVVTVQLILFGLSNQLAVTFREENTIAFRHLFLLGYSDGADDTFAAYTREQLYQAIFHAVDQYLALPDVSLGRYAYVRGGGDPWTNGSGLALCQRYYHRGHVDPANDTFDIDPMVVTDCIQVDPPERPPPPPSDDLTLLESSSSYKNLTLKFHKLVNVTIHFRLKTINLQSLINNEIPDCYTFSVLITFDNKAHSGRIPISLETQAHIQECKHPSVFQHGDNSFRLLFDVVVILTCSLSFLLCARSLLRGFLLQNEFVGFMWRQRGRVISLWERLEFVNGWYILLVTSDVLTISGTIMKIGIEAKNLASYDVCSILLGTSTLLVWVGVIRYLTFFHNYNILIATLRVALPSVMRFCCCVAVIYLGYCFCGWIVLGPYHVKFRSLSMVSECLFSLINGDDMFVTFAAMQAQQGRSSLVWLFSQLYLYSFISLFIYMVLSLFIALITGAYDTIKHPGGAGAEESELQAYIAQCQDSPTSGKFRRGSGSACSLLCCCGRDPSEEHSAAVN

| EC50 (TRPML1) [nM] | EC50 (TRPML2) [nM] | EC50 (TRPML3) [nM] | Compound |
| --- | --- | --- | --- |
| < 100 | < 100 | < 100 | CC1CC1c1cn(-c2cc(C#N)ccn2)c2ncnc(N3CCN(C(=O)OC(C)(C)C)C[C@@H]3C)c12 (stereo partly drawn) [Compound 615, tert-butyl (3S)-4-(7-(4-cyanopyridin-2-yl)-5-(2-methylcyclopropyl)-7H-pyrrolo[2,3-d]pyrimidin-4-yl)-3-methylpiperazine-1-carboxylate] |
| < 100 | > 2000 | 100 to 500 | C[C@@H]1CN(c2ncnc3c2c(CC(F)(F)F)cn3-c2nccc(C#N)n2)[C@@H](C)CN1C(=O)OC(C)(C)C [Compound 617, tert-butyl (2R,5S)-4-(7-(4-cyanopyrimidin-2-yl)-5-(2,2,2-trifluoroethyl)-7H-pyrrolo[2,3-d]pyrimidin-4-yl)-2,5-dimethylpiperazine-1-carboxylate] |
| 100 to 500 | > 2000 | > 2000 | C[C@@H]1CN(c2ncnc3c2c(C(F)(F)F)cn3C2CCCCC2)[C@@H](C)CN1C(=O)OC(C)(C)C [Compound 625, tert-butyl (2R,5S)-4-(7-cyclohexyl-5-(trifluoromethyl)-7H-pyrrolo[2,3-d]pyrimidin-4-yl)-2,5-dimethylpiperazine-1-carboxylate] |
| 500 to 2000 | > 2000 | 100 to 500 | C[C@@H]1CN(c2ncnc3c2c(C(F)(F)F)cn3C2CCCC(C#N)C2)[C@@H](C)CN1C(=O)OC(C)(C)C (stereo partly drawn) [Compound 629, tert-butyl (2R,5S)-4-(7-(3-cyanocyclohexyl)-5-(trifluoromethyl)-7H-pyrrolo[2,3-d]pyrimidin-4-yl)-2,5-dimethylpiperazine-1-carboxylate] |
| 500 to 2000 | > 2000 | 500 to 2000 | C[C@@H]1CN(c2ncnc3c2c(C(F)F)cn3C2CCCC(C#N)C2)[C@@H](C)CN1C(=O)OC(C)(C)C (stereo partly drawn) [Compound 633, tert-butyl (2R,5S)-4-(7-(3-cyanocyclohexyl)-5-(difluoromethyl)-7H-pyrrolo[2,3-d]pyrimidin-4-yl)-2,5-dimethylpiperazine-1-carboxylate] |
| < 100 | 100 to 500 | 100 to 500 | C[C@@H]1CN(c2ncnc3c2c(N2CCC2)cn3-c2cccc(F)c2)[C@@H](C)CN1C(=O)OC(C)(C)C [Compound 635, tert-butyl (2R,5S)-4-(5-(azetidin-1-yl)-7-(3-fluorophenyl)-7H-pyrrolo[2,3-d]pyrimidin-4-yl)-2,5-dimethylpiperazine-1-carboxylate] |
| < 100 | < 100 | < 100 | C[C@H]1CN(C(=O)OC(C)(C)C)CCN1c1ncnc2c1c(N1CCC1)cn2-c1cccc(F)c1 [Compound 636, tert-butyl (S)-4-(5-(azetidin-1-yl)-7-(3-fluorophenyl)-7H-pyrrolo[2,3-d]pyrimidin-4-yl)-3-methylpiperazine-1-carboxylate] |
| < 100 | 100 to 500 | < 100 | C[C@H]1CN(C(=O)OC(C)(C)C)CCN1c1nccc2c1c(N1CCC1)cn2-c1cccc(F)c1 [Compound 637, tert-butyl (S)-4-(3-(azetidin-1-yl)-1-(3-fluorophenyl)-1H-pyrrolo[3,2-c]pyridin-4-yl)-3-methylpiperazine-1-carboxylate] |
| < 100 | 100 to 500 | < 100 | C[C@@H]1CN(c2nccc3c2c(N2CCC2)cn3-c2cccc(F)c2)[C@@H](C)CN1C(=O)OC(C)(C)C [Compound 638] |
| < 100 | < 100 | < 100 | C[C@H]1CN(C(=O)OC(C)(C)C)CCN1c1ncnc2c1c(C1CCC1)cn2-c1cccc(F)c1 [Compound 641, tert-butyl (S)-4-(5-cyclobutyl-7-(3-fluorophenyl)-7H-pyrrolo[2,3-d]pyrimidin-4-yl)-3-methylpiperazine-1-carboxylate] |
| 100 to 500 | 500 to 2000 | 100 to 500 | C[C@@H]1CN(c2ncnc3c2c(C2CC2)cn3-c2ccccn2)[C@@H](C)CN1C(=O)OC(C)(C)C [Compound 643, tert-butyl (2R,5S)-4-(5-cyclopropyl-7-(pyridin-2-yl)-7H-pyrrolo[2,3-d]pyrimidin-4-yl)-2,5-dimethylpiperazine-1-carboxylate] |
| 100 to 500 | 500 to 2000 | 100 to 500 | Cc1ccnc(-n2cc(C3CC3)c3c(N4C[C@@H](C)N(C(=O)OC(C)(C)C)C[C@@H]4C)ncnc32)c1 [Compound 644, tert-butyl (2R,5S)-4-(5-cyclopropyl-7-(4-methylpyridin-2-yl)-7H-pyrrolo[2,3-d]pyrimidin-4-yl)-2,5-dimethylpiperazine-1-carboxylate] |
| 100 to 500 | 100 to 500 | 100 to 500 | C[C@@H]1CN(c2ncnc3c2c(C2CCC2)cn3-c2cccc(C(F)(F)F)c2)[C@@H](C)CN1C(=O)OC(C)(C)C [Compound 645, tert-butyl (2R,5S)-4-(5-cyclobutyl-7-(3-(trifluoromethyl)phenyl)-7H-pyrrolo[2,3-d]pyrimidin-4-yl)-2,5-dimethylpiperazine-1-carboxylate] |

More lines, now with the values behind:

| Compound | EC50 (TRPML1) [nM] | EC50 (TRPML2) [nM] | EC50 (TRPML3) [nM] |
| --- | --- | --- | --- |
| CC1CC1c1cn(-c2cccc(C#N)c2)c2ncnc(N3CCN(C(=O)OC(C)(C)C)C[C@@H]3C)c12 (stereo partly drawn) [Compound 616] | < 100 | < 100 | < 100 |
| C[C@@H]1CN(c2ncnc3c2c(CC(F)(F)F)cn3-c2cc(C#N)ncn2)[C@@H](C)CN1C(=O)OC(C)(C)C [Compound 618, tert-butyl (2R,5S)-4-(7-(6-cyanopyrimidin-4-yl)-5-(2,2,2-trifluoroethyl)-7H-pyrrolo[2,3-d]pyrimidin-4-yl)-2,5-dimethylpiperazine-1-carboxylate] | < 100 | 100 to 500 | < 100 |
| C[C@@H]1CN(c2ncnc3c2c(CC(F)(F)F)cn3-c2cc(C#N)ccn2)[C@@H](C)CN1C(=O)OC(C)(C)C [Compound 619] | < 100 | 500 to 2000 | < 100 |
| C[C@@H]1CN(c2nccc3c2c(C(F)(F)F)cn3-c2cc(C#N)ccn2)[C@@H](C)CN1C(=O)OC(C)(C)C [Compound 620, tert-butyl (2R,5S)-4-(1-(4-cyanopyridin-2-yl)-3-(trifluoromethyl)-1H-pyrrolo[3,2-c]pyridin-4-yl)-2,5-dimethylpiperazine-1-carboxylate] | < 100 | 100 to 500 | < 100 |
| [2H]C([2H])([2H])C(OC(=O)N1C[C@H](C)N(c2nccc3c2c(C(F)(F)F)cn3-c2cc(C#N)ccn2)C[C@H]1C)(C([2H])([2H])[2H])C([2H])([2H])[2H] [Compound 623, 2-(methyl-d3)propan-2-yl-1,1,1,3,3,3-d6 (2R,5S)-4-(1-(4-cyanopyridin-2-yl)-3-(trifluoromethyl)-1H-pyrrolo[3,2-c]pyridin-4-yl)-2,5-dimethylpiperazine-1-carboxylate] | < 100 | 500 to 2000 | < 100 |
| C[C@@H]1CN(c2nccc3c2c(C(F)F)cn3-c2cc(C#N)ccn2)[C@@H](C)CN1C(=O)OC(C)(C)C [Compound 624, tert-butyl (2R,5S)-4-(1-(4-cyanopyridin-2-yl)-3-(difluoromethyl)-1H-pyrrolo[3,2-c]pyridin-4-yl)-2,5-dimethylpiperazine-1-carboxylate] | 100 to 500 | > 2000 | 100 to 500 |
| C[C@@H]1CN(c2ncnc3c2c(C(F)F)cn3C2CCCCC2)[C@@H](C)CN1C(=O)OC(C)(C)C [Compound 627, tert-butyl (2R,5S)-4-(7-cyclohexyl-5-(difluoromethyl)-7H-pyrrolo[2,3-d]pyrimidin-4-yl)-2,5-dimethylpiperazine-1-carboxylate] | 100 to 500 | > 2000 | 100 to 500 |
| COc1ccnc(-n2cc(C3CC3)c3c(N4C[C@@H](C)N(C(=O)OC(C)(C)C)C[C@@H]4C)ncnc32)c1 [Compound 642, tert-butyl (2R,5S)-4-(5-cyclopropyl-7-(4-methoxypyridin-2-yl)-7H-pyrrolo[2,3-d]pyrimidin-4-yl)-2,5-dimethylpiperazine-1-carboxylate] | 100 to 500 | 500 to 2000 | 100 to 500 |
